The source of these data is PubChem BioAssay (NCI).

SMILES strings stand for the structures. Values joined by “and” are separate entries in the source; they are usually repeats but may differ in a detail not shown here. Equal entries are not always repeated.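 Assay format: 96-well plates, 48-hour exposure. Abbreviation: GI50, concentration required for 50% inhibition of growth. TGI denotes the concentration required for complete inhibition of growth.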

Test systems include HCT-15 colon; ACHN renal; SK-MEL-5 melanoma; SNB-75 CNS; SK-MEL-2 melanoma; UACC-257 melanoma; M14 melanoma; SF-268 CNS; HOP-92 NSCLC; HT29 colon.
Holding throughout (assay): DTP human tumour cell line panel, 48 h

Turning to `COC(=O)C1=C(C(=O)OC)C2OC1c1cc3ccccc3cc12`, the total growth inhibition concentration (TGI) was 8.09 µM with HCT-15 colon; 3.03 µM with ACHN renal; 30.8 µM in the assay on SK-MEL-5 melanoma; 38.7 µM in the assay with SNB-75 CNS; 29.5 µM with SK-MEL-2 melanoma; 17.5 µM in the assay with UACC-257 melanoma. Besides, the TGI with M14 melanoma was 4.83 µM; in the assay with SF-268 CNS, 34.9 µM; with HOP-92 NSCLC, 6.34 µM; in the assay with HT29 colon it was 20.4 µM.

For `Cc1ccc(/C=C(\C#N)c2ccccc2)cc1`, the TGI in the assay on HCT-15 colon, in the assay on ACHN renal, with SK-MEL-5 melanoma, in the assay on SNB-75 CNS, in the assay on SK-MEL-2 melanoma and in the assay with UACC-257 melanoma was above 100 µM in each case. The TGI with M14 melanoma, in the assay on SF-268 CNS, with HOP-92 NSCLC and with HT29 colon was above 100 µM in each case.

Take `O=C(Nc1nc(-c2ccc(Cl)cc2)nc2c1sc(=S)n2-c1ccccc1)C(F)(F)F`: the GI50 in the assay with HCT-15 colon is 6.46 µM; in the assay with ACHN renal, 1.81 µM; with SK-MEL-5 melanoma, 8.23 µM; in the assay with SNB-75 CNS, 1.68 µM; in the assay with SK-MEL-2 melanoma, 5.8 µM; in the assay on UACC-257 melanoma it was 10.7 µM. Also, the GI50 in the assay with M14 melanoma was 7.61 µM; in the assay on SF-268 CNS, 4.45 µM; in the assay on HOP-92 NSCLC, 2.35 µM; with HT29 colon it was 3.73 µM. For the same molecule, the TGI in the assay with HCT-15 colon is above 100 µM; in the assay on ACHN renal it was 3.56 µM; in the assay with SK-MEL-5 melanoma, 32.3 µM; with SNB-75 CNS, 3.49 µM; with SK-MEL-2 melanoma, 22.7 µM; in the assay with UACC-257 melanoma it was 60 µM. For the same molecule, the TGI in the assay on M14 melanoma is above 100 µM; in the assay with SF-268 CNS it was 24.3 µM; in the assay with HOP-92 NSCLC, 6.08 µM; with HT29 colon, above 100 µM.

As to `CCCN1C(=O)/C(=C/c2ccc(O)cc2)SC1=Nc1ccc(OC)cc1`, the GI50 with HCT-15 colon was 12.6 µM; in the assay on ACHN renal, 12.7 µM; in the assay on SK-MEL-5 melanoma it was 11 µM; in the assay with SNB-75 CNS, 17.8 µM; in the assay on SK-MEL-2 melanoma, 37.1 µM; in the assay with UACC-257 melanoma, 17.3 µM. The GI50 was 26.8 µM in the assay with M14 melanoma, 17.3 µM in the assay with SF-268 CNS, 6.91 µM in the assay on HOP-92 NSCLC and 22.1 µM in the assay with HT29 colon. For the same molecule, the TGI in the assay with HCT-15 colon was 25.7 µM; in the assay with ACHN renal it was 25.3 µM; in the assay on SK-MEL-5 melanoma, 26 µM; in the assay on SNB-75 CNS it was 46.1 µM; in the assay on SK-MEL-2 melanoma, above 100 µM; with UACC-257 melanoma, 31.7 µM. Further, the concentration for total growth inhibition (TGI) worked out at 60.6 µM with M14 melanoma, 74.9 µM in the assay with SF-268 CNS, 23.2 µM in the assay with HOP-92 NSCLC and 48.4 µM in the assay on HT29 colon.

For the molecule `O=C1C(=O)N(c2cccc(C(F)(F)F)c2)C(=O)C(=O)C1c1nc2ccccc2s1`, the TGI with HCT-15 colon, in the assay with ACHN renal, with SK-MEL-5 melanoma, in the assay on SNB-75 CNS, in the assay on SK-MEL-2 melanoma and with UACC-257 melanoma was above 100 µM each time. For the same molecule, the TGI in the assay on M14 melanoma, in the assay with SF-268 CNS, with HOP-92 NSCLC and with HT29 colon was above 100 µM each time.

For the molecule `CC(=O)O[C@H]1C(=O)[C@@]2(C)[C@H]([C@H](OC(=O)c3ccccc3)[C@@]3(O)C[C@H](O)C(C)=C1C3(C)C)[C@]1(OC(C)=O)CO[C@@H]1C[C@@H]2O`, the TGI with HCT-15 colon, in the assay on ACHN renal, in the assay on SK-MEL-5 melanoma, in the assay on SNB-75 CNS, in the assay with SK-MEL-2 melanoma and with UACC-257 melanoma was above 100 µM throughout. Further, the TGI in the assay with M14 melanoma was 74.8 µM; in the assay with SF-268 CNS it was above 100 µM; in the assay with HOP-92 NSCLC it was above 100 µM; in the assay on HT29 colon, 86.6 µM.

Consider `CC(=O)NC(CCCCN(Cc1ccccc1)C(=O)N(CCCl)N=O)C(=O)NCc1ccccc1` (stereo unspecified), for which the TGI with HCT-15 colon was above 100 µM; in the assay with ACHN renal it was 41 µM; in the assay on SK-MEL-5 melanoma, above 100 µM; with SNB-75 CNS, 63.8 µM; in the assay with SK-MEL-2 melanoma, 62.2 µM; in the assay on UACC-257 melanoma, above 44.6 µM. Besides, the TGI in the assay with M14 melanoma is above 71.5 µM; in the assay with SF-268 CNS, 40.8 µM; with HOP-92 NSCLC, 68.6 µM; with HT29 colon it was above 72.4 µM.

For the molecule `CC(O)CN1c2ccccc2Sc2ccc(Cl)cc21` (stereo unspecified), the TGI in the assay on HCT-15 colon, with ACHN renal, with SK-MEL-5 melanoma, in the assay with SNB-75 CNS, in the assay on SK-MEL-2 melanoma and with UACC-257 melanoma was above 10 µM throughout. Further, the TGI with M14 melanoma, in the assay on SF-268 CNS, with HOP-92 NSCLC and in the assay with HT29 colon was above 10 µM each time.

Take `CC[C@@H](C)Nc1cc(C(=O)NC2CC3CCC(C2)N3c2ccc(C(=O)C3CC3)cn2)c(C)cc1C(N)=O` (stereo partly specified): the GI50 in the assay on HCT-15 colon is 0.0317 µM; in the assay on ACHN renal, 0.0441 µM; in the assay with SK-MEL-5 melanoma, 0.0599 µM; in the assay on SNB-75 CNS, 0.192 µM; in the assay on SK-MEL-2 melanoma it was 0.0661 µM; in the assay with UACC-257 melanoma, 0.04 µM. In addition, the GI50 with M14 melanoma was 0.0489 µM; in the assay on SF-268 CNS, 0.357 µM; with HOP-92 NSCLC, 0.0422 µM; with HT29 colon, 0.0111 µM. Moreover, the TGI was above 100 µM in the assay on HCT-15 colon; above 100 µM in the assay on ACHN renal; 8.35 µM in the assay on SK-MEL-5 melanoma; above 100 µM with SNB-75 CNS; 19 µM in the assay on SK-MEL-2 melanoma; 32 µM with UACC-257 melanoma. Further, the TGI in the assay on M14 melanoma is above 84 µM; in the assay on SF-268 CNS it was above 100 µM; in the assay with HOP-92 NSCLC it was 0.599 µM; in the assay on HT29 colon, 15.9 µM.

`COc1ccc(/C=C\c2cc(OC)c(OC)c(OC)c2)c(O)c1O`: the GI50 in the assay on HCT-15 colon was 0.0628 µM and 0.0643 µM; in the assay on SK-MEL-5 melanoma, below 0.015 µM; in the assay with SNB-75 CNS it was 2.36 µM; in the assay on SK-MEL-2 melanoma, 0.0705 µM; in the assay with UACC-257 melanoma it was 0.142 µM; with SF-268 CNS, 0.249 µM. For the same molecule, the values for the 50% growth inhibitory concentration (GI50) with HOP-92 NSCLC and in the assay on HT29 colon were 0.0588 µM and 20.1 µM, respectively. The TGI with HCT-15 colon is > 57.5 µM and 8.27 µM; with ACHN renal, 57.7 µM; in the assay on SNB-75 CNS it was 20.7 µM and 48.2 µM; in the assay with SK-MEL-2 melanoma it was 33.3 µM and 7.62 µM; in the assay on UACC-257 melanoma it was 28.7 µM and 52.3 µM; in the assay on M14 melanoma, 9.95 µM. Moreover, the TGI in the assay on SF-268 CNS was 37.8 µM and 32 µM; with HT29 colon, 36.1 µM and 103 µM.

Regarding `C=C1C(=O)OC2C1C(OC(=O)/C(C)=C\C)CC1(CO1)C1C(O)C=C(C)C21O` (stereo unspecified), the TGI turned out to be 11 µM with HCT-15 colon; 13.9 µM in the assay with ACHN renal; 17.7 µM with SK-MEL-5 melanoma; 29.2 µM with SNB-75 CNS; 12.5 µM in the assay with SK-MEL-2 melanoma; 21.7 µM in the assay with UACC-257 melanoma. Besides, the TGI with M14 melanoma was 7.58 µM; in the assay with SF-268 CNS, 17.4 µM; in the assay with HOP-92 NSCLC, 31.3 µM; in the assay on HT29 colon, 31.4 µM.

For the molecule `COC(=O)C(=O)C(C(=O)C=C(C)C)C(=O)C(=O)Nc1nc2ccc([N+](=O)[O-])cc2s1` (stereo unspecified), the TGI in the assay on HCT-15 colon was above 100 µM; in the assay on ACHN renal it was above 100 µM; in the assay with SK-MEL-5 melanoma, above 100 µM; in the assay on SNB-75 CNS, 63.7 µM; in the assay on SK-MEL-2 melanoma it was above 100 µM; in the assay on UACC-257 melanoma it was above 100 µM. Besides, the TGI with M14 melanoma is above 100 µM; in the assay with SF-268 CNS, above 100 µM; in the assay with HOP-92 NSCLC, 74.2 µM; in the assay with HT29 colon, above 100 µM.

Regarding `CC1CC(C)C2=NOS3=C2C1=NO3` (stereo unspecified), the TGI in the assay with HCT-15 colon, in the assay with ACHN renal, with SK-MEL-5 melanoma, in the assay with SNB-75 CNS, in the assay with SK-MEL-2 melanoma and in the assay on UACC-257 melanoma was above 100 µM throughout. Also, the TGI in the assay on M14 melanoma, with SF-268 CNS, in the assay on HOP-92 NSCLC and in the assay on HT29 colon was above 100 µM each time.

On to `CCCCCCN(C)Cc1ccc(OCCOc2ccc(CN(C)CCCCCC)cc2)cc1`, for which the GI50 in the assay with HCT-15 colon is 0.984 µM; in the assay on ACHN renal it was 1.62 µM; in the assay on SK-MEL-5 melanoma it was 1.36 µM; in the assay on SNB-75 CNS it was 1.2 µM; in the assay on SK-MEL-2 melanoma it was 1.61 µM; with UACC-257 melanoma it was 0.448 µM. Besides, the GI50 was 0.448 µM in the assay with M14 melanoma, 2.59 µM in the assay on SF-268 CNS, 0.407 µM in the assay on HOP-92 NSCLC and 0.375 µM in the assay on HT29 colon. The TGI in the assay on HCT-15 colon came to 2.83 µM; in the assay with ACHN renal, 3.63 µM; with SK-MEL-5 melanoma, 2.66 µM; in the assay with SNB-75 CNS it was 2.57 µM; in the assay on SK-MEL-2 melanoma it was 3.08 µM; in the assay with UACC-257 melanoma, 1.84 µM. Besides, the TGI in the assay on M14 melanoma was 1.83 µM; in the assay on SF-268 CNS, 11.8 µM; in the assay with HOP-92 NSCLC, 2.05 µM; in the assay with HT29 colon, 1.53 µM.

For the molecule `CC[C@]12C=CCN3CC[C@@]4(c5ccc(OC)cc5N(C)[C@H]4[C@@](O)(C(=O)OC)[C@@H]1OC(=O)CCC(=O)N[C@H](Cc1c[nH]c4ccccc14)C(=O)OC)[C@@H]32`, the GI50 is 3.51 µM in the assay on HCT-15 colon; 13.4 µM in the assay with ACHN renal; 2.54 µM in the assay with SK-MEL-5 melanoma; 2.23 µM in the assay with SNB-75 CNS; 17 µM with SK-MEL-2 melanoma; 6 µM in the assay with UACC-257 melanoma. The GI50 in the assay with M14 melanoma was 4.06 µM; with SF-268 CNS, 4.88 µM; in the assay with HOP-92 NSCLC it was 4.02 µM; in the assay with HT29 colon, 3.11 µM. The TGI in the assay with HCT-15 colon was determined as 16.7 µM; with ACHN renal, 52.7 µM; with SK-MEL-5 melanoma, 7.14 µM; with SNB-75 CNS, 14.1 µM; with SK-MEL-2 melanoma, 37.3 µM; in the assay on UACC-257 melanoma, 23.1 µM. The TGI was above 100 µM in the assay on M14 melanoma, 25.9 µM in the assay with SF-268 CNS, 24.4 µM with HOP-92 NSCLC and 14.4 µM in the assay on HT29 colon.

One may read the TGI as the concentration at which net growth stops. The GI50 is the concentration that inhibits growth by half.
